Test system: SARS-CoV-2
Assay: Antiviral activity against SARS-CoV-2 spike pseudotyped lentivirus infected in HEK293 cells expressing human ACE2 assessed as inhibition of viral entry into cells preincubated with cell for 1 hrs followed by viral infection for 1 hrs and further replaced with fresh medium and measured 48 hrs post transduction by luminescence based luciferase reporter assay
Assay type: functional, organism-based, HEK293T
Conditions: Severe acute respiratory syndrome coronavirus 2, HEK-293T

| Structure (SMILES) | IC50 [nM] |
| --- | --- |
| COc1ccc2[nH]c(C(O)c3ccc(Cl)cc3)c(CCNC(C)=O)c2c1 (configuration not stated) | ~1000 |
| COC(=O)NCCc1c(C(O)c2ccccc2)[nH]c2ccc(OC)cc12 (configuration not stated) | ~1000 |

Source: ChEMBL document CHEMBL5346896, “Development of indolealkylamine derivatives as potential multi-target agents for COVID-19 treatment” (Eur J Med Chem, 2023)
